Laboratory results from patent US8080235B2, “Protein kinase A reporters useful in high throughput assays” (The Johns Hopkins University, priority 2005, dated 2011).

What was measured:
Format in all cases: cell-based
[1] = tested on: PKA activity; experiment: AKAR3 live cell 96-well plate reader assay (yellow/cyan emission ratio)
Experimental: (§1) Live Cell Plate Reading. HEK-293 cells were transfected with AKAR3 or ICUE3 using calcium phosphate at 40% confluency and grown for 40 hours. Cells were then trypsinized and plated in a Costar 3603 96-well plate (Corning) at a density of 150,000 cells per well. After incubation for another 24 hours, cells were washed once with HBSS and left in 150 μl of HBSS at 20-25° C. Fluorescence reading was taken on a FLUOstar OPTIMA fluorescence microplate reader (BMG Labtechnologies Inc.) using a 420DF20 excitation filter and two emission filters (470DF40 for cyan and 535DF25 for yellow). A baseline was established in three cycles, each consisting of a full plate reading of yellow intensity, followed by a reading of cyan intensity.
(§2) Each cycle lasted between 64 and 92 seconds. Cells were then treated with ISO, Fsk, H89, Propranolol (Pro; Sigma), or 3-isobutyl-1-methylxanthine (IBMX; Sigma) as indicated. Readings were taken in additional cycles. FRET change was calculated as the percent increase of emission ratios (yellow-to-cyan for AKAR and cyan-to-yellow for ICUE) over baseline for each well during a given cycle. Several parameters were calculated to assess the efficiency of the assay, including Z′ factor, coefficient of variation, and signal to noise (S/N) ratio (22).
AKAR2 (FIG. 4). This reporter, AKAR3 (FIG. 1b), was tested in a 96-well plate format. […] As negative controls, addition of buffer of 2% DMSO generated minimal changes in emission ratios. This 96-well plate assay was sensitive and reproducible, with a signal to noise ratio of 30.3, a Z′ factor of 0.84, and a coefficient of variation (CV) of 1.8% for the Fsk-stimulated response.
To provide specific readout of compartmentalized PKA activities, we introduced a C-terminal nuclear export signal (NES) to AKAR3 . In the plate reader assay using AKAR3 -NES (FIG. 1d), cytosolic PKA activity was recorded without contamination of nuclear activity, which has slower kinetics due to diffusional translocation of the catalytic subunit from cytosol to nucleus. […] Thus, sensor targeting provides increased temporal and spatial resolution and can be used to reveal how individual signaling microdomains, such as kinase-containing signaling complexes, are affected by drugs or other perturbations, adding another level of capacity to the non-image-based high-throughput assays of the invention.

[2] = tested on: cAMP; experiment: ICUE3 live cell high-throughput cAMP plate reader assay (cyan/yellow emission ratio)
Experimental: as §1, §2
To follow the activity of the signaling pathway and to assay related drug targets in parallel, we developed a live cell-based high-throughput assay for cAMP, a second messenger that is generated via activation of Gs-coupled GPCRs and exerts its effects by activating PKA and other effectors. Similar improvement approaches were first applied to create a reporter that more than doubled the response of previous “Indicator for cAMP Using Epac” (ICUE), which generates a decrease in FRET upon binding of cAMP (FIG. 5). […] Possible sources of the variation and reduced signal are transfection efficiency and expression variability.

[3] = tested on: PKA activity; experiment: AKAR3 high-throughput screening of Johns Hopkins Clinical Compound Library; settings: 10 μM compound about 15 min, then 0.25 μM ISO
Experimental: Live Cell High-Throughput Screening. […] After incubation for 24 hours, cells were washed once with HBSS and left in 190 μl of HBSS at 20-25° C. Fluorescence readings were taken as described above, with each cycle lasting 90 seconds. Following baseline acquisition, cells in each experimental well were treated with a compound from the Johns Hopkins Clinical Compound Library to a final concentration of 10 μM. Control cells were treated with 10 μL of 10% fetal bovine serum (FBS) in a solution of phosphate buffered saline (PBS) at pH 7.4, which is the solution used to dissolve library compounds.
Ten final cycles were then performed.
FRET responses were calculated as described above. […] Agonist hits were defined as compounds eliciting responses larger than six times the standard deviation above the baseline. Antagonist hits were defined as compounds which decreased the ISO stimulated response by 50% or by six times the standard deviation.
In a primary screening, 160 compounds from the Johns Hopkins Clinical Compound Library were added to AKAR3-expressing HEK-293 cells in individual wells of 96-well plates to a final concentration of 10 μM after a base line reading. Time courses were recorded to monitor any fluorescence changes upon drug addition and to identify hits which activate PKA as potential agonists.
Potential agonists were identified by selecting compounds which stimulated emission ratio changes larger than 6 times the standard deviation above the negative control (FIG. 3a ).

[4] = tested on: cAMP; experiment: ICUE high-throughput screening of Johns Hopkins Clinical Compound Library (stable cells); settings: 10 μM compound, then 0.25 μM Iso plus 100 μM IBMX
Experimental: Live Cell High-Throughput Screening. HEK-293 cells transiently expressing AKAR or stably expressing ICUE were trypsinized and plated in a Costar 3606 96-well plate (Corning) at a density of 150,000 cells per well. After incubation for 24 hours, cells were washed once with HBSS and left in 190 μl of HBSS at 20-25° C. Fluorescence readings were taken as described above, with each cycle lasting 90 seconds. Following baseline acquisition, cells in each experimental well were treated with a compound from the Johns Hopkins Clinical Compound Library to a final concentration of 10 μM. Control cells were treated with 10 μL of 10% fetal bovine serum (FBS) in a solution of phosphate buffered saline (PBS) at pH 7.4, which is the solution used to dissolve library compounds.
Readings were taken for 10 cycles spanning a time of approximately 15 minutes, after which cells in experimental wells and positive controls were treated with 0.25 μM ISO (AKAR) or 0.25 μM Iso plus 100 μM IBMX (ICUE), while negative controls received 0.5% DMSO in HBSS. Ten final cycles were then performed.
FRET responses were calculated as described above. Negative control (10% FBS, 0.5% DMSO) and positive control (10% FBS, 0.25 μM ISO) curves were generated. Agonist hits were defined as compounds eliciting responses larger than six times the standard deviation above the baseline. […]

CC(C)NCC(O)COc1cccc2ccccc12 (stereo not drawn) [Pro, propranolol]
effect on ISO-induced AKAR3 response ([1]; 10 μM Pro, FIG. 2): inhibited
effect on Fsk-stimulated AKAR3 response ([1]; FIG. 2d): no effect
effect on Fsk-stimulated ICUE3 response ([2]; FIG. 2c): no effect
effect on ISO-induced ICUE3 response ([2]; co-treatment, 10 μM Pro, FIG. 2a): inhibited
antagonist screen: effect on ISO-stimulated AKAR response [3]: potently inhibited
antagonist screen: effect on ISO-stimulated ICUE response [4]: potently inhibited
